# Source: the supplement of paper PMC10307832
# Assays:
# Assay in all cases: relative viability (nuclei count vs DMSO), 5 days (fraction); higher = more cells survive
# COR-L23 = system: COR-L23
# Method in brief: (§1)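 Medians of duplicate plates are given as relative viability. That measure is the nuclei count in treated wells divided by the count in vehicle wells. Counts were taken on 4× images of lung cancer cell lines in 1536-well plates, 5 days after pin-tool dosing the day after seeding with one drug alone or a fixed anchor-drug dose plus five library-drug doses (not always all listed) in √10 steps.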
# ChaGo-K-1 = system: ChaGo-K-1
# Method in brief: as §1
# EPLC-272H = system: EPLC-272H
# Method in brief: as §1
# H3255 = system: H3255
# Method in brief: as §1
# HARA = system: HARA
# Method in brief: as §1
# HCC-78 = system: HCC-78
# Method in brief: as §1
# HOP-62 = system: HOP-62
# Method in brief: as §1
# LCLC-97TM1 = system: LCLC-97TM1
# Method in brief: as §1
# LXF-289 = system: LXF-289
# Method in brief: as §1
# NCI-H1395 = system: NCI-H1395
# Method in brief: as §1
# NCI-H1437 = system: NCI-H1437
# Method in brief: as §1
# NCI-H1650 = system: NCI-H1650
# Method in brief: as §1
# NCI-H1666 = system: NCI-H1666
# Method in brief: as §1
# NCI-H1793 = system: NCI-H1793
# Method in brief: as §1
# NCI-H1944 = system: NCI-H1944
# Method in brief: as §1
# NCI-H2085 = system: NCI-H2085
# Method in brief: as §1
# NCI-H2087 = system: NCI-H2087
# Method in brief: as §1
# NCI-H2126 = system: NCI-H2126
# Method in brief: as §1
# NCI-H3122 = system: NCI-H3122
# Method in brief: as §1
# NCI-H441 = system: NCI-H441
# Method in brief: as §1
# NCI-H596 = system: NCI-H596
# Method in brief: as §1
# NCI-H661 = system: NCI-H661
# Method in brief: as §1
# PC-14 = system: PC-14
# Method in brief: as §1
compound,measurement,setting,value
Cc1cn(-c2cc(NC(=O)c3ccc(C)c(Nc4nccc(-c5cccnc5)n4)c3)cc(C(F)(F)F)c2)cn1 [Nilotinib] + CS(=O)(=O)N1CCN(Cc2cc3nc(-c4cccc5[nH]ncc45)nc(N4CCOCC4)c3s2)CC1 [Pictilisib] (partner 1 µM),relative viability,COR-L23; first compound 0.001 µM,0.777
same,relative viability,COR-L23; first compound 0.003162 µM,1.01
same,relative viability,COR-L23; first compound 0.01 µM,1.4
same,relative viability,COR-L23; first compound 0.03162 µM,0.901
same,relative viability,COR-L23; first compound 0.1 µM,0.607
same,relative viability,ChaGo-K-1; first compound 0.001 µM,1.22
same,relative viability,ChaGo-K-1; first compound 0.003162 µM,0.581
same,relative viability,ChaGo-K-1; first compound 0.01 µM,0.654
same,relative viability,ChaGo-K-1; first compound 0.03162 µM,0.315
same,relative viability,ChaGo-K-1; first compound 0.1 µM,0.444
same,relative viability,EPLC-272H; first compound 0.001 µM,0.273
same,relative viability,EPLC-272H; first compound 0.003162 µM,0.308
same,relative viability,EPLC-272H; first compound 0.01 µM,0.258
same,relative viability,EPLC-272H; first compound 0.03162 µM,0.338
same,relative viability,EPLC-272H; first compound 0.1 µM,0.258
same,relative viability,H3255; first compound 0.001 µM,0.44
same,relative viability,H3255; first compound 0.003162 µM,0.438
same,relative viability,H3255; first compound 0.01 µM,0.57
same,relative viability,H3255; first compound 0.03162 µM,0.416
same,relative viability,H3255; first compound 0.1 µM,0.441
same,relative viability,HARA; first compound 0.001 µM,0.445
same,relative viability,HARA; first compound 0.003162 µM,0.307
same,relative viability,HARA; first compound 0.01 µM,0.458
same,relative viability,HARA; first compound 0.03162 µM,0.197
same,relative viability,HARA; first compound 0.1 µM,0.186
same,relative viability,HCC-78; first compound 0.001 µM,0.211
same,relative viability,HCC-78; first compound 0.003162 µM,0.178
same,relative viability,HCC-78; first compound 0.01 µM,0.198
same,relative viability,HCC-78; first compound 0.03162 µM,0.202
same,relative viability,HCC-78; first compound 0.1 µM,0.224
same,relative viability,HOP-62; first compound 0.001 µM,0.539
same,relative viability,HOP-62; first compound 0.003162 µM,0.902
same,relative viability,HOP-62; first compound 0.01 µM,0.587
same,relative viability,HOP-62; first compound 0.03162 µM,0.63
same,relative viability,HOP-62; first compound 0.1 µM,0.401
same,relative viability,LCLC-97TM1; first compound 0.001 µM,0.184
same,relative viability,LCLC-97TM1; first compound 0.003162 µM,0.213
same,relative viability,LCLC-97TM1; first compound 0.01 µM,0.16
same,relative viability,LCLC-97TM1; first compound 0.03162 µM,0.167
same,relative viability,LCLC-97TM1; first compound 0.1 µM,0.123
same,relative viability,LXF-289; first compound 0.001 µM,0.837
same,relative viability,LXF-289; first compound 0.003162 µM,0.946
same,relative viability,LXF-289; first compound 0.01 µM,0.858
same,relative viability,LXF-289; first compound 0.03162 µM,0.667
same,relative viability,LXF-289; first compound 0.1 µM,0.335
same,relative viability,NCI-H1395; first compound 0.001 µM,0.711
same,relative viability,NCI-H1395; first compound 0.003162 µM,0.581
same,relative viability,NCI-H1395; first compound 0.01 µM,0.566
same,relative viability,NCI-H1395; first compound 0.03162 µM,0.552
same,relative viability,NCI-H1395; first compound 0.1 µM,0.401
same,relative viability,NCI-H1437; first compound 0.001 µM,0.381
same,relative viability,NCI-H1437; first compound 0.003162 µM,0.414
same,relative viability,NCI-H1437; first compound 0.01 µM,0.373
same,relative viability,NCI-H1437; first compound 0.03162 µM,0.47
same,relative viability,NCI-H1437; first compound 0.1 µM,0.44
same,relative viability,NCI-H1650; first compound 0.001 µM,0.534
same,relative viability,NCI-H1650; first compound 0.003162 µM,0.709
same,relative viability,NCI-H1650; first compound 0.01 µM,0.562
same,relative viability,NCI-H1650; first compound 0.03162 µM,0.546
same,relative viability,NCI-H1650; first compound 0.1 µM,0.288
same,relative viability,NCI-H1666; first compound 0.001 µM,0.348
same,relative viability,NCI-H1666; first compound 0.003162 µM,0.319
same,relative viability,NCI-H1666; first compound 0.01 µM,0.373
same,relative viability,NCI-H1666; first compound 0.03162 µM,0.463
same,relative viability,NCI-H1666; first compound 0.1 µM,0.397
same,relative viability,NCI-H1793; first compound 0.003162 µM,0.32
same,relative viability,NCI-H1793; first compound 0.01 µM,0.31
same,relative viability,NCI-H1793; first compound 0.03162 µM,0.31
same,relative viability,NCI-H1793; first compound 0.1 µM,0.235
same,relative viability,NCI-H1944; first compound 0.001 µM,0.355
same,relative viability,NCI-H1944; first compound 0.003162 µM,0.342
same,relative viability,NCI-H1944; first compound 0.01 µM,0.358
same,relative viability,NCI-H1944; first compound 0.03162 µM,0.345
same,relative viability,NCI-H1944; first compound 0.1 µM,0.234
same,relative viability,NCI-H2085; first compound 0.001 µM,0.435
same,relative viability,NCI-H2085; first compound 0.003162 µM,0.457
same,relative viability,NCI-H2085; first compound 0.01 µM,0.402
same,relative viability,NCI-H2085; first compound 0.03162 µM,0.466
same,relative viability,NCI-H2085; first compound 0.1 µM,0.405
same,relative viability,NCI-H2087; first compound 0.001 µM,0.759
same,relative viability,NCI-H2087; first compound 0.003162 µM,0.846
same,relative viability,NCI-H2087; first compound 0.01 µM,0.984
same,relative viability,NCI-H2087; first compound 0.03162 µM,0.606
same,relative viability,NCI-H2087; first compound 0.1 µM,0.32
same,relative viability,NCI-H2126; first compound 0.001 µM,0.494
same,relative viability,NCI-H2126; first compound 0.003162 µM,0.501
same,relative viability,NCI-H2126; first compound 0.01 µM,0.393
same,relative viability,NCI-H2126; first compound 0.03162 µM,0.546
same,relative viability,NCI-H2126; first compound 0.1 µM,0.378
same,relative viability,NCI-H3122; first compound 0.001 µM,0.666
same,relative viability,NCI-H3122; first compound 0.003162 µM,0.846
same,relative viability,NCI-H3122; first compound 0.01 µM,0.808
same,relative viability,NCI-H3122; first compound 0.03162 µM,0.473
same,relative viability,NCI-H3122; first compound 0.1 µM,0.436
same,relative viability,NCI-H441; first compound 0.001 µM,0.371
same,relative viability,NCI-H441; first compound 0.003162 µM,0.576
same,relative viability,NCI-H441; first compound 0.01 µM,0.532
same,relative viability,NCI-H441; first compound 0.1 µM,0.305
same,relative viability,NCI-H596; first compound 0.001 µM,0.352
same,relative viability,NCI-H596; first compound 0.003162 µM,0.41
same,relative viability,NCI-H596; first compound 0.01 µM,0.386
same,relative viability,NCI-H596; first compound 0.03162 µM,0.393
same,relative viability,NCI-H596; first compound 0.1 µM,0.366
same,relative viability,NCI-H661; first compound 0.001 µM,0.396
same,relative viability,NCI-H661; first compound 0.003162 µM,0.38
same,relative viability,NCI-H661; first compound 0.01 µM,0.438
same,relative viability,NCI-H661; first compound 0.03162 µM,0.325
same,relative viability,NCI-H661; first compound 0.1 µM,0.391
same,relative viability,PC-14; first compound 0.003162 µM,0.83
same,relative viability,PC-14; first compound 0.01 µM,0.841
same,relative viability,PC-14; first compound 0.03162 µM,0.503
same,relative viability,PC-14; first compound 0.1 µM,0.664
